Laboratory results as given in PMC6119630 (Bioorganic & medicinal chemistry letters, 2018).
Each block holds one compound with its values, some of them ahead of it.

Tests used:
[1] = system: type 2 diabetic patients; conditions: FIELD and ACCORD; cited from earlier work
[2] = target: T1, hPPARα (Homo sapiens, UniProt Q07869); assay: PPARα luciferase cell reporter assay; conditions: for PPAR isoform selectivity profile: hPPARδ, hPPARγ luciferase cell-lines
T1 sequence (Q07869 1-468): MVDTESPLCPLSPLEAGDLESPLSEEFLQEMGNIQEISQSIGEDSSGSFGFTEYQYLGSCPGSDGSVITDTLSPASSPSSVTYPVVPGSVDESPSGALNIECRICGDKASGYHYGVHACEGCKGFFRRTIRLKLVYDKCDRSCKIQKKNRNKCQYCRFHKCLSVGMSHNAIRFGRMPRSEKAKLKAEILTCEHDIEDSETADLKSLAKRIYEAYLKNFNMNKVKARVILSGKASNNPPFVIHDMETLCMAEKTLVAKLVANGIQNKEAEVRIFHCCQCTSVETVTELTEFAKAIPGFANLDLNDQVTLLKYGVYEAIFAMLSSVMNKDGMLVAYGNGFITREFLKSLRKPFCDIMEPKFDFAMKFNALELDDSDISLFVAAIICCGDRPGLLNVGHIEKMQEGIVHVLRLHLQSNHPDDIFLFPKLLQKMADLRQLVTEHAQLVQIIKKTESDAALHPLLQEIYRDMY

[3] = system: PPARα; assay: Western blot analysis of PPARα expression in 661W cells; format: cell-based, mouse; conditions: 24 h treatment
[4] = system: PPARα target genes (Acadm, Cpt1a, Fabp3, Slc25a20); assay: RT-PCR of PPARα target genes in 661W cells; format: cell-based, mouse; conditions: 24 h treatment, n=6
[5] = system: human retinal capillary endothelial cells (HRCEC); assay: in vitro wound healing assay; format: cell-based; conditions: 10 h and 24 h incubation
[6] = target: T1, hPPARα; assay: cell-based
[7] = system: PPARα; conditions: read-out: EC50 in biochemical PPARα assays; cited from earlier work
[8] = system: retinas of mice and diabetic rats; conditions: cited from earlier work

SMILES: CC(C)OC(=O)C(C)(C)Oc1ccc(C(=O)c2ccc(Cl)cc2)cc1 [fenofibrate]
- effects against diabetic macular edema (DME) and retinal NV [1]: robust protective effects

- PPAR isoform selectivity profile ([2]; hPPARα): pan-agonist profile was maintained
- improvement in potency versus 22 ([2]; hPPARα, compare 22 and 28): 10 fold
SMILES: COc1ccc(COc2ccc(CNc3cccc(OC(C)(C)C(=O)O)c3)c(OCc3ccc(OC)cc3)c2)cc1 [Compound 28]

SMILES: Cc1nc(-c2ccc(C(F)(F)F)cc2)sc1C(=O)NCc1ccc(OC(C)(C)C(=O)O)cc1 [GW590735, reference compound]
- cytotoxicity in reporter assay ([2]; concentrations higher than 10 μM): observed cytotoxicity at higher concentrations

- EC50 [6]: ~6 µM
SMILES: COc1ccc(COc2ccc(CNc3cccc(C(=O)O)c3)cc2)cc1 [Compound 10]
- PPARα expression (Western blot) [3]: induced the expression of PPARα in a dose-dependent manner
- expression of PPARα target genes (RT-PCR) [4]: induces the expression of various PPARα target genes
- wound closure (cell migration) [5]: inhibits wound closure in a dose-dependent fashion

SMILES: Cc1c(Cl)ccc2c(C(=O)O)cc(-c3ccccc3)nc12 [Compound Y-0452, 7-chloro-8-methyl-2-phenylquinoline-4-carboxylic acid]
- EC50 [7]: 25 to 50 µM
- toxicity in the retinas ([8]; mice and diabetic rats): without signs of toxicity
- effects in vivo against DR ([8]; retinas of mice and diabetic rats): protective effects in vivo against DR

- PPAR isoform selectivity profile ([2]; hPPARα): maintains the selectivity
SMILES: COc1ccc(COc2ccc(CNc3cccc(C(=O)O)c3)c(OCc3ccc(OC)cc3)c2)cc1 [Compound 26]
